From the supplement of paper PMC10307832

Tests used:
Assay in all cases: relative viability (nuclei count vs DMSO), 5 days (fraction); higher = more cells survive
IMD-0354 + Palbociclib = compound: O=C(Nc1cc(C(F)(F)F)cc(C(F)(F)F)c1)c1cc(Cl)ccc1O [IMD-0354] + CC(=O)c1c(C)c2cnc(Nc3ccc(N4CCNCC4)cn3)nc2n(C2CCCC2)c1=O [Palbociclib] (partner 0.5 µM)
How it was run: (§1)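 Lung cancer cell lines, seeded in 1536-well plates, were treated the following day by pin tool with a single drug or with five library-drug doses (not always all listed) in √10 steps on top of a fixed anchor-drug dose. Cells were fixed and nuclei stained in one step after 5 days, and nuclei were counted. Relative viability is the nuclei count for treated wells divided by that for vehicle wells, reported as medians of duplicate plates.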

IMD-0354 + AZD7762 = compound: O=C(Nc1cc(C(F)(F)F)cc(C(F)(F)F)c1)c1cc(Cl)ccc1O [IMD-0354] + NC(=O)Nc1cc(-c2cccc(F)c2)sc1C(=O)N[C@H]1CCCNC1 [AZD7762] (partner 0.2 µM)
How it was run: as §1

CX-5461 + Alpelisib = compound: Cc1cnc(CNC(=O)c2c(=O)c3ccc(N4CCCN(C)CC4)nc3n3c2sc2ccccc23)cn1 [CX-5461] + Cc1nc(NC(=O)N2CCC[C@H]2C(N)=O)sc1-c1ccnc(C(C)(C)C(F)(F)F)c1 [Alpelisib] (partner 2 µM)
How it was run: as §1

IMD-0354 + Bortezomib = compound: O=C(Nc1cc(C(F)(F)F)cc(C(F)(F)F)c1)c1cc(Cl)ccc1O [IMD-0354] + CC(C)C[C@H](NC(=O)[C@H](Cc1ccccc1)NC(=O)c1cnccn1)B(O)O [Bortezomib] (partner 0.002 µM)
How it was run: as §1

| Cell Line | relative viability (IMD-0354 + Palbociclib; first compound 0.04 µM) | relative viability (IMD-0354 + Palbociclib; first compound 0.1265 µM) | relative viability (IMD-0354 + Palbociclib; first compound 0.4 µM) | relative viability (IMD-0354 + Palbociclib; first compound 1.265 µM) | relative viability (IMD-0354 + Palbociclib; first compound 4 µM) | relative viability (IMD-0354 + AZD7762; first compound 0.04 µM) | relative viability (IMD-0354 + AZD7762; first compound 0.1265 µM) | relative viability (IMD-0354 + AZD7762; first compound 0.4 µM) | relative viability (IMD-0354 + AZD7762; first compound 1.265 µM) | relative viability (IMD-0354 + AZD7762; first compound 4 µM) | relative viability (CX-5461 + Alpelisib; first compound 0.01 µM) | relative viability (CX-5461 + Alpelisib; first compound 0.03162 µM) | relative viability (CX-5461 + Alpelisib; first compound 0.1 µM) | relative viability (CX-5461 + Alpelisib; first compound 0.3162 µM) | relative viability (CX-5461 + Alpelisib; first compound 1 µM) | relative viability (IMD-0354 + Bortezomib; first compound 0.04 µM) | relative viability (IMD-0354 + Bortezomib; first compound 0.1265 µM) | relative viability (IMD-0354 + Bortezomib; first compound 0.4 µM) | relative viability (IMD-0354 + Bortezomib; first compound 1.265 µM) | relative viability (IMD-0354 + Bortezomib; first compound 4 µM) |
| --- | --- | --- | --- | --- | --- | --- | --- | --- | --- | --- | --- | --- | --- | --- | --- | --- | --- | --- | --- | --- |
| NCI-H522 | 1.14 | 0.87 | 0.881 | 0.994 | 0.458 | 1.05 | 0.815 | 0.702 | 0.766 | 0.461 | – | – | – | – | – | – | – | – | – | – |
| HCC-15 | 0.733 | 0.664 | 0.627 | 0.289 | 0.1 | 1.07 | 1.13 | 0.923 | 0.648 | 0.157 | 0.937 | 0.905 | 0.91 | 0.89 | 0.779 | 1 | 0.962 | 0.549 | 0.346 | 0.119 |
| A-427 | 0.516 | 0.525 | 0.441 | 0.157 | 0.158 | 1.01 | 0.827 | 0.585 | 0.14 | 0.202 | 1.08 | 1.16 | 1.17 | – | 1.06 | 1.14 | 1.07 | 0.543 | 0.369 | 0.109 |
| NCI-H2228 | 0.618 | 0.618 | 0.683 | 0.21 | 0.322 | – | – | – | – | – | 0.709 | 0.884 | 0.504 | 0.591 | 0.234 | 0.946 | 0.848 | 0.653 | 0.362 | 0.258 |
| NCI-H1734 | 0.352 | 0.352 | 0.314 | 0.232 | 0.196 | 0.573 | 0.565 | 0.417 | 0.198 | 0.152 | 0.772 | 0.789 | 0.665 | 0.559 | 0.615 | 1.22 | 1.17 | 0.385 | 0.211 | 0.259 |
| SK-LU-1 | 0.398 | 0.394 | 0.319 | 0.239 | 0.296 | – | – | – | – | – | 1.08 | 1.35 | 0.724 | 0.945 | 0.332 | 1.17 | 1.1 | 0.645 | 0.418 | 0.304 |
| PC-14 | 0.574 | 0.533 | 0.317 | 0.129 | 0.189 | 0.424 | 0.391 | 0.145 | 0.128 | 0.108 | 0.947 | 1.23 | 1.05 | 0.933 | 0.883 | 1.12 | 0.802 | 0.354 | 0.443 | 0.114 |
| NCI-H1915 | 0.461 | 0.489 | 0.424 | 0.234 | 0.143 | 0.666 | 0.694 | 0.58 | 0.507 | 0.149 | 1.07 | 1.12 | 1.09 | 1.04 | 1.03 | 0.833 | 1 | 0.396 | 0.738 | 0.183 |
| NCI-H1666 | 0.737 | 0.616 | 0.601 | 0.57 | 0.495 | 0.777 | 0.957 | 0.689 | 0.623 | 0.467 | 1.01 | 0.983 | – | 0.924 | 0.416 | 0.667 | 0.804 | 0.641 | 0.257 | 0.169 |
| HCC-366 | 0.474 | 0.535 | 0.259 | 0.0918 | 0.0749 | 0.277 | 0.361 | 0.148 | 0.0408 | 0.048 | 0.591 | 0.529 | 0.33 | 0.507 | 0.234 | 1.2 | 0.885 | 0.281 | 0.099 | 0.0336 |
| LK-2 | 0.521 | 0.614 | – | 0.877 | 0.185 | 0.251 | 0.39 | – | 0.105 | 0.172 | – | 1.22 | 1.37 | – | 0.864 | – | – | – | – | – |
| NCI-H661 | 0.397 | 0.385 | 0.369 | 0.276 | 0.253 | – | – | – | – | – | 0.805 | 0.674 | 0.876 | – | 0.588 | 0.968 | 0.718 | 0.719 | 0.925 | 0.276 |
| PC-3 [JPC-3] | 0.633 | 0.578 | 0.496 | 0.363 | 0.282 | 1.01 | 0.751 | 0.64 | 0.291 | 0.355 | 1.06 | 1.08 | 1.02 | 1.07 | 0.932 | 0.928 | 0.912 | 0.534 | 0.636 | 0.312 |
| Calu-6 | – | – | – | – | – | – | – | – | – | – | 0.984 | 1.15 | 0.916 | 1.07 | 0.304 | 1.1 | 1.1 | 0.673 | 0.167 | 0.124 |
| LC-2-ad | 0.531 | 0.451 | 0.333 | 0.287 | 0.181 | 0.902 | 0.85 | 0.504 | 0.15 | 0.24 | 0.885 | 0.9 | 0.805 | 0.981 | 0.561 | 1.02 | 0.991 | 0.385 | 0.129 | 0.119 |
| CAL-12T | 0.633 | 0.423 | 0.325 | 0.189 | 0.164 | 0.655 | 0.744 | 0.357 | 0.261 | 0.32 | 1.25 | 1.17 | – | 1.37 | 0.546 | 1.03 | 0.963 | 0.682 | 0.177 | 0.18 |
| RERF-LC-KJ | 1.29 | 1.1 | 0.776 | 0.642 | 0.19 | 1.1 | 1 | – | 0.327 | 0.184 | 0.832 | 0.951 | 0.933 | 0.754 | 0.773 | 1.15 | 1.17 | 0.875 | 0.489 | 0.254 |
| NCI-H1650 | 0.192 | 0.389 | 0.311 | 0.127 | 0.181 | – | – | – | – | – | – | – | – | – | – | 0.205 | 0.196 | 0.189 | 0.166 | 0.197 |
| BEN | 0.432 | 0.428 | 0.359 | 0.411 | 0.318 | 0.715 | 0.793 | 0.487 | 0.334 | 0.347 | 1.14 | 1.04 | 1.14 | 1.07 | 0.92 | 0.874 | 0.964 | 0.462 | 0.296 | 0.217 |
